Counter-ions that a name gives are not always drawn. Like-named read-outs stand apart in the source and are kept apart here.
What was measured:
blood glucose = test: Hypoglycaemic activity: reduction in area under blood glucose curve after glucose load; format: in vivo, Female CFLP mice; settings: Mus musculus, read-out: % Reduction in area under Blood Glucose Curve
Method: Female CFLP mice, weighing approximately 25 g, were fasted for 24 hours prior to the study. The compounds under study were administered orally as an aqueous solution to each of 6 mice. 30 minutes later a blood sample (10 μl) was obtained from the tail for the analysis of blood glucose. Immediately after taking this blood sample, glucose (1 g/Kg body weight) was administered subcutaneously to each mouse. 6 mice were given water as a control. Blood samples were then obtained from each mouse at 30 minute intervals for 120 minutes.
Compounds that produced a significant (P<0.05) reduction of blood glucose, compared with control mice given water, at any time interval, were considered active. The area under the blood glucose curve over the 2 hour period after the administration of the glucose was calculated for each compound and compared with the value for control animals.

[1] = Effect on energy expenditure of mice; format: in vivo, Female CFLP mice; settings: Mus musculus; for response vs control in vivo at 24.2 mg/kg: 24.2 mg/kg po; for response vs control in vivo at 21 mg/kg: 21.0 mg/kg po; for response vs control in vivo at 8.5 mg/kg: 8.5 mg/kg po
Method: Female CFLP mice, each weighing approximately 24 g were given food and water ad lib before and during the experiment. The compounds were dissolved in water by addition of one mole of hydrochloric acid per mole of compound and these solutions were administered orally to each of 12 mice. A further 12 mice were dosed orally with water. The mice were placed in boxes through which air was drawn and the oxygen content of the air leaving the boxes was measured. The energy expenditure of the mice was calculated for 21 hours after dosing from the volume of air leaving the boxes and its oxygen content, following the principles described by J. B. de V. Weir, J. Physiol. (London), 109, 1-9 (1949).

[2] = po, 21 h, read-out: Mean Energy Expenditure (0-21 h)
[3] = 2.5 μmol/Kg oral, 2 h after glucose 1 g/Kg s.c., vs control
[4] = 0-3 h, read-out: Mean Energy Expenditure (0-3 h)
[5] = 0-21 h, read-out: Mean Energy Expenditure (0-21 h)
[6] = po, 3 h, read-out: Mean Energy Expenditure (0-3 h)
[7] = 25 μmol/Kg oral, 2 h after glucose 1 g/Kg s.c., vs control

COC(=O)COc1ccc(C[C@@H](C)NC[C@H](OC)c2cccc(Cl)c2)cc1 (relative stereo) [Example 60, N-[2-(4-Carbomethoxymethoxyphenyl)-1-methylethyl]-2-methoxy-2-(3-chlorophenyl)ethanamine hydrochloride(RR,SS)diasteroisomer]
inhibition in vivo at 0.5 µmol/kg (blood glucose; 0.5 μmol/Kg oral, 2 h after glucose 1 g/Kg s.c., vs control): 30.5%
response vs control in vivo at 8.6 mg/kg [1, 2]: 115%
response vs control in vivo at 8.6 mg/kg ([1]; 8.6 mg/kg po, 0-3 h, read-out: Mean Energy Expenditure (0-3 h)): 131%

CCCCOC(CNC(C)Cc1ccc(OCC(=O)NC)cc1)c1cccc(Cl)c1 (stereo not drawn) [Example 43, N-[2-(4-Methylaminocarbonylmethoxyphenyl)-1-methylethyl]-2-^n butoxy-2-(3-chlorophenyl)ethanamine hydrochloride hemihydrate]
inhibition in vivo at 2.5 µmol/kg (blood glucose; [3]): 31%
response vs control in vivo at 24.2 mg/kg [1, 4]: 144%
response vs control in vivo at 24.2 mg/kg [1, 5]: 105%

COC(CNC(C)Cc1ccc(N(C)C)cc1)c1cccc(Cl)c1 (stereo not drawn) [Example 41, N-[2-(4-Dimethylaminophenyl)-1-methylethyl]-2-methoxy-2-(3-chlorophenyl)ethanamine dihydrochloride hemihydrate]
inhibition in vivo at 12.5 µmol/kg (blood glucose; po, 2 h): 45%
response vs control in vivo at 21.4 mg/kg [1, 6]: 107%
response vs control in vivo at 21.4 mg/kg [1, 2]: 116%

CNCCOc1ccc(CC(C)NCC(OC)c2cccc(Br)c2)cc1 (stereo not drawn) [Example 17, N-[2-(4-Methylaminoethoxy)phenyl)-1-methylethyl]-2-methoxy-2-(3-bromophenyl)ethanamine dihydrochloride]
inhibition in vivo at 2.5 µmol/kg (blood glucose; [3]): 25%
response vs control in vivo at 24.7 mg/kg [1, 6]: 142%
response vs control in vivo at 24.7 mg/kg [1, 2]: 130%

COC(=O)COc1ccc(CC(C)NCC(OC)c2cccc(C(F)(F)F)c2)cc1 (stereo not drawn) [Example 2, N-[2-(4-Carbomethoxymethoxyphenyl)-1-methylethyl]-2-methoxy-2-(3-trifluoromethylphenyl)ethanamine hydrochloride]
inhibition in vivo at 12.5 µmol/kg (blood glucose; po, 2 h): 47%
response vs control in vivo at 23.1 mg/kg [1, 6]: 124%
response vs control in vivo at 23.1 mg/kg [1, 2]: 113%

COC(=O)COc1ccc(CC(C)NCC(OCc2ccccc2)c2cccc(Cl)c2)cc1 (stereo not drawn) [Example 50, N-[2-(4-Carbomethoxymethoxyphenyl)-1-methylethyl]-2-benzyloxy-2-(3-chlorophenyl)ethanamine hydrochloride]
inhibition in vivo at 2.5 µmol/kg (blood glucose; po, 2 h): 41%
response vs control in vivo at 24.6 mg/kg [1, 6]: 142%
response vs control in vivo at 24.6 mg/kg [1, 2]: 116%

CCOC(CNC(C)Cc1ccc(OCC(=O)NC)cc1)c1cccc(Cl)c1 (stereo not drawn) [Example 16, N-[2-(4-Methylaminocarbonylmethoxyphenyl)-1-methylethyl]-2-ethoxy-2-(3-chlorophenyl)ethanamine hydrochloride]
inhibition in vivo at 1 µmol/kg (blood glucose; po, 2 h): 49%
response vs control in vivo at 22.1 mg/kg [1, 6]: 140%
response vs control in vivo at 22.1 mg/kg [1, 2]: 126%

CNC(=O)COc1ccc(CC(C)NCC(COc2ccccc2)OC)cc1 (stereo not drawn) [Example 52, N-[2-(4-Methylaminocarbonylmethoxyphenyl)-1-methylethyl]-2-methoxy-3-phenoxypropanamine hydrochloride]
inhibition in vivo at 12.5 µmol/kg (blood glucose; po, 2 h): 35%
response vs control in vivo at 21.1 mg/kg [1, 6]: 130%
response vs control in vivo at 21.1 mg/kg [1, 2]: 113%

CCCCOC(CNC(C)Cc1ccc(OCC(=O)OC)cc1)c1cccc(Cl)c1 (stereo not drawn) [Example 42, N-[2-(4-Carbomethoxymethoxyphenyl)-1-methylethyl]-2-^n butoxy-2-(3-chlorophenyl)ethanamine hydrochloride]
inhibition in vivo at 5 µmol/kg (blood glucose; 5 μmol/Kg oral, 2 h after glucose 1 g/Kg s.c., vs control): 37%
response vs control in vivo at 23.5 mg/kg [1, 2]: 114%
response vs control in vivo at 23.5 mg/kg ([1]; 23.5 mg/kg po, 0-3 h, read-out: Mean Energy Expenditure (0-3 h)): 158%

CNCc1ccc(CC(C)NCC(OC)c2cccc(Cl)c2)cc1 (stereo not drawn) [Example 35, N-[2-(4-N'-Methylaminomethylphenyl)-1-methylethyl]-2-methoxy-2-(3-chlorophenyl)ethanamine dihydrochloride]
inhibition in vivo at 12.5 µmol/kg (blood glucose; 12.5 μmol/Kg oral, 2 h after glucose 1 g/Kg s.c., vs control): 10%
response vs control in vivo at 21 mg/kg [1, 4]: 124%
response vs control in vivo at 21 mg/kg [1, 5]: 123%

COC(=O)COc1ccc(CC(C)NCC(OC)c2ccccc2)cc1 (stereo not drawn) [Example 10, N-[2-(4-Carbomethoxymethoxyphenyl)-1-methylethyl]-2-methoxy-2-phenylethanamine hydrochloride monohydrate]
inhibition in vivo at 1 µmol/kg (blood glucose; po, 2 h): 24%
response vs control in vivo at 20.6 mg/kg [1, 6]: 135%
response vs control in vivo at 20.6 mg/kg [1, 2]: 114%

CCOC(CNC(C)Cc1ccc(C(=O)OC)cc1)c1cccc(Cl)c1 (stereo not drawn) [Example 33, N-[2-(4-Carbomethoxyphenyl)-1-methylethyl]-2-ethoxy-2-(3-chlorophenyl)ethanamine hydrochloride hemihydrate]
inhibition in vivo at 25 µmol/kg (blood glucose; [7]): 52%
response vs control in vivo at 21.1 mg/kg [1, 2]: 122%
response vs control in vivo at 21.1 mg/kg ([1]; 21.1 mg/kg po, 0-3 h, read-out: Mean Energy Expenditure (0-3 h)): 148%

COC(CNC(C)Cc1ccc(OCCO)cc1)c1ccccc1 (stereo not drawn) [Example 21, N-[2-(4-(2-Hydroxyethoxy)phenyl)-1-methylethyl]-2-methoxy-2-phenylethanamine hydrochloride hemihydrate]
inhibition in vivo at 1 µmol/kg (blood glucose; 1.0 μmol/Kg oral, 2 h after glucose 1 g/Kg s.c., vs control): 48%
response vs control in vivo at 18.8 mg/kg [1, 2]: 120%
response vs control in vivo at 18.8 mg/kg ([1]; 18.8 mg/kg po, 0-3 h, read-out: Mean Energy Expenditure (0-3 h)): 147%

COC(=O)COc1ccc(CC(C)NCC(OC)c2cc3ccccc3o2)cc1 (stereo not drawn) [Example 36, N-[2-(4-Carbomethoxymethoxyphenyl)-1-methylethyl]-2-methoxy-2-(2-benzofuranyl)ethanamine hydrochloride]
inhibition in vivo at 2.5 µmol/kg (blood glucose; po, 2 h): 30%
response vs control in vivo at 21.6 mg/kg [1, 6]: 131%
response vs control in vivo at 21.6 mg/kg [1, 2]: 104%

COC(=O)/C=C/c1ccc(CC(C)NCC(OC)c2cccc(Cl)c2)cc1 (stereo not drawn) [Example 47, N-[2-(4-{[E]-2-Carbomethoxyethenyl}phenyl)-1-methylethyl]-2-methoxy-2-(3-chlorophenyl)ethanamine hydrochloride]
inhibition in vivo at 12.5 µmol/kg (blood glucose; po, 2 h): 41%
response vs control in vivo at 21.3 mg/kg [1, 6]: 130%
response vs control in vivo at 21.3 mg/kg [1, 2]: 109%

COC(=O)COc1ccc(CC(C)NCC(OC(C)C)c2cccc(Cl)c2)cc1 (stereo not drawn) [Example 26, N-[2-(4-Carbomethoxymethoxyphenyl)-1-methylethyl]-2-isopropoxy-2-(3-chlorophenyl)ethanamine hydrochloride]
inhibition in vivo at 2.5 µmol/kg (blood glucose; po, 2 h): 45%
response vs control in vivo at 22.8 mg/kg [1, 6]: 122%
response vs control in vivo at 22.8 mg/kg [1, 2]: 103%

CNCCOc1ccc(C[C@@H](C)NC[C@H](OC)c2ccccc2)cc1 [Example 59, N-[2-(4-(2-Methylaminoethoxy)phenyl)-1-(R)-1-methylethyl]-2-(R)-2-methoxy-2-phenylethanamine dihydrochloride hemihydrate]
inhibition in vivo at 25 µmol/kg (blood glucose; [7]): 36%
response vs control in vivo at 8.5 mg/kg [1, 4]: 148%
response vs control in vivo at 8.5 mg/kg [1, 5]: 111%

COC(=O)CN(C)c1ccc(CC(C)NCC(OC)c2ccccc2)cc1 (stereo not drawn) [Example 58, N-[2-(4-N'-Methyl-N'-carbomethoxymethylaminophenyl)-1-methylethyl]-2-methoxy-2-phenylethanamine dihydrochloride]
inhibition in vivo at 2.5 µmol/kg (blood glucose; [3]): 17%
response vs control in vivo at 22.1 mg/kg [1, 2]: 108%
response vs control in vivo at 22.1 mg/kg ([1]; 22.1 mg/kg po, 0-3 h, read-out: Mean Energy Expenditure (0-3 h)): 131%

COc1cccc(CC(C)NCC(OC)c2cccc(Cl)c2)c1 (stereo not drawn) [Example 39, N-[2-(3-Methoxyphenyl)-1-methylethyl]-2-methoxy-2-(3-chlorophenyl)ethanamine hydrochloride]
inhibition in vivo at 25 µmol/kg (blood glucose; po, 2 h): 15%
response vs control in vivo at 18.5 mg/kg [1, 6]: 130%
response vs control in vivo at 18.5 mg/kg [1, 2]: 103%

COC(=O)Cc1ccc(CC(C)NCC(OC)c2cccc(Cl)c2)cc1 (stereo not drawn) [Example 49, N-[2-(4-Carbomethoxymethylphenyl)-1-methylethyl]-2-methoxy-2-(3-chlorophenyl)ethanamine hydrochloride]
inhibition in vivo at 12.5 µmol/kg (blood glucose; po, 2 h): 47%
response vs control in vivo at 20.6 mg/kg [1, 6]: 131%
response vs control in vivo at 20.6 mg/kg [1, 2]: 135%

COC(=O)COc1ccc(CC(C)NCC(OC)c2cccc(Br)c2)cc1 (stereo not drawn) [Example 12, N-[2-(4-Carbomethoxymethoxyphenyl)-1-methylethyl]-2-methoxy-2-(3-bromophenyl)ethanamine hydrochloride]
inhibition in vivo at 1 µmol/kg (blood glucose; po, 2 h): 51%
response vs control in vivo at 23.6 mg/kg [1, 6]: 130%
response vs control in vivo at 23.6 mg/kg [1, 2]: 123%

Reference: patent publication US4629737A, “Secondary amines and use in pharmaceutical compositions” (Beecham Group p.l.c., priority 1982, dated 1986)
